According to the NIST ThermoML archive (doi:10.1016/j.jct.2007.11.010):

Test: xn = mol fraction of the nth substance listed
Conditions: 101 kPa, Liquid

OCCN1CCOCC1 [4-morpholineethanol] + CCO
mass density [kg/m3]
Conditions | 293.15 K | 298.15 K | 303.15 K | 313.15 K | 323.15 K
x1 = 0.0543 | 820.46 | 817.03 | 812.82 | 804.96 | 794.75
x1 = 0.1127 | 851.58 | 847.96 | 843.64 | 835.77 | 824.13
x1 = 0.1873 | 886.91 | 883.05 | 878.64 | 870.75 | 857.23
x1 = 0.2468 | 911.75 | 907.72 | 903.24 | 895.37 | 880.63
x1 = 0.2874 | 927.58 | 923.45 | 918.93 | 911.07 | –
x1 = 0.3248 | 941.14 | 936.91 | 932.36 | 924.52 | –
x1 = 0.3873 | 961.89 | 957.52 | 952.92 | 945.11 | 927.56
x1 = 0.4267 | 973.69 | 969.23 | 964.6 | 956.83 | 938.98
x1 = 0.4882 | 990.98 | 986.4 | 981.73 | 974 | 955.56
x1 = 0.5237 | 1000.12 | 995.47 | 990.79 | 983.09 | 964.48
x1 = 0.5894 | 1015.56 | 1010.8 | 1006.1 | 998.46 | –
x1 = 0.6422 | 1026.73 | 1021.89 | 1017.17 | 1009.59 | –
x1 = 0.6899 | 1035.93 | 1031.02 | 1026.29 | 1018.76 | 1001.11
x1 = 0.7439 | 1045.49 | 1040.52 | 1035.78 | 1028.31 | 1011.45
x1 = 0.7855 | 1051.94 | 1046.91 | 1042.18 | 1034.76 | 1018.98
x1 = 0.8238 | 1057.63 | 1052.57 | 1047.83 | 1040.46 | 1025.59
x1 = 0.8841 | 1065.21 | 1060.1 | 1055.37 | 1048.08 | 1035.44
x1 = 0.9247 | 1069.51 | 1064.37 | 1059.65 | 1052.42 | 1041.71
x1 = 0.9544 | 1072.49 | 1067.33 | 1062.62 | 1055.43 | 1046.13
x1 = 0.9844 | 1075.58 | 1070.4 | 1065.69 | 1058.55 | 1050.45
